Where two headings read alike, the source gives them in different places.
Tests used:
[1] = target: T1, COX-2 (Homo sapiens, UniProt P35354); test: Human COX-2 enzyme activity in human whole blood (LPS-induced, thromboxane B2 EIA); type: cell-based; conditions: for inhibition at 1 µM: read-out: COX-2 Inhibition (% at 1 μM); for inhibition at 10 µM: read-out: COX-2 Inhibition (% at 10 μM)
T1 construct: To induce COX-2, lipopolysaccharide (LPS) from E. coli; endogenous in cells; host or cells: heparinised human whole blood from donors, with COX-2 induced by E. coli LPS
T1 sequence (P35354 18-604): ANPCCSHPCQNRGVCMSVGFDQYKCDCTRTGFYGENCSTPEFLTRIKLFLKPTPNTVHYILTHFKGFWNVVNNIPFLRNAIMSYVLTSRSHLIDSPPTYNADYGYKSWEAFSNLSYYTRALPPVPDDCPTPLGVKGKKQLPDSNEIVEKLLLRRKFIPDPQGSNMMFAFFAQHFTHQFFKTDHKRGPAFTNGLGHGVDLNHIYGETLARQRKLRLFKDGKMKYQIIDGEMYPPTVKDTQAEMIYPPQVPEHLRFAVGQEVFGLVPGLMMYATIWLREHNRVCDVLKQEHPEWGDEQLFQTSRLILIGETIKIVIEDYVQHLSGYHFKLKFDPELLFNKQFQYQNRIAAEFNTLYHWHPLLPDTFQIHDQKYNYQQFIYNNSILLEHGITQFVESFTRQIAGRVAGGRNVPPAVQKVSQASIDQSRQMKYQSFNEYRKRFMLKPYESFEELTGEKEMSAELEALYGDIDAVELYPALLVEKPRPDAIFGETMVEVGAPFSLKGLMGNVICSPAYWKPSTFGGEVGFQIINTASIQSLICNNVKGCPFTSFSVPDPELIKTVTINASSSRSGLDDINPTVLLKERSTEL
Method: (§1) The blood was transported to the laboratory on ice packs and used within 1.5 hours of collection. Upon receipt in the laboratory, the blood was allowed to come to room temperature for 15 minutes prior to distribution in 1 mL aliquots per well of 24 well tissue culture plates. […] Test compounds were dissolved in DMSO, at 1000 fold the final desired concentration, and further diluted, as indicated, in DMSO. One μL of each dilution of the test compound was added per well, in duplicate wells; wells not receiving test compound (e.g., basal, background or control wells) received 1 μL DMSO. […] Louis, Mo., Catalogue No. […] Louis, Mo., Catalogue No. […] (Again, basal, background or control wells not stimulated with A23187 received 1 μL of DMSO.) At 5 hours after the addition of the test compound, all incubations were terminated by placement on ice and the addition of 2 mM EGTA (100 μL of 20 mM EGTA, tetrasodium, in PBS (phosphate buffered saline) without Ca^++ and Mg^++, pH 7.2)). […] One hundred μL of plasma was removed from each blood sample and added to 1 mL of methanol in new 15 mL polypropylene centrifuge tubes, vortexed, and stored overnight at -20° C. […] The samples were assayed for thromboxane B2 using EIA kits supplied by Cayman Chemical Co. […] The % inhibition for COX-1 and COX-2 enzyme activity in human whole blood by the test compounds, at the indicated concentrations, are given in Table 1.

[2] = target: T2, COX-1 (Homo sapiens, UniProt P23219); test: Human COX-1 enzyme activity in human whole blood (A23187-stimulated, thromboxane B2 EIA); type: cell-based; conditions: for inhibition at 100 µM: read-out: COX-1 Inhibition (% at 100 μM)
T2 construct: endogenous in cells; host or cells: heparinised human whole blood from donors, stimulated with the calcium ionophore A23187
T2 sequence (P23219 24-599): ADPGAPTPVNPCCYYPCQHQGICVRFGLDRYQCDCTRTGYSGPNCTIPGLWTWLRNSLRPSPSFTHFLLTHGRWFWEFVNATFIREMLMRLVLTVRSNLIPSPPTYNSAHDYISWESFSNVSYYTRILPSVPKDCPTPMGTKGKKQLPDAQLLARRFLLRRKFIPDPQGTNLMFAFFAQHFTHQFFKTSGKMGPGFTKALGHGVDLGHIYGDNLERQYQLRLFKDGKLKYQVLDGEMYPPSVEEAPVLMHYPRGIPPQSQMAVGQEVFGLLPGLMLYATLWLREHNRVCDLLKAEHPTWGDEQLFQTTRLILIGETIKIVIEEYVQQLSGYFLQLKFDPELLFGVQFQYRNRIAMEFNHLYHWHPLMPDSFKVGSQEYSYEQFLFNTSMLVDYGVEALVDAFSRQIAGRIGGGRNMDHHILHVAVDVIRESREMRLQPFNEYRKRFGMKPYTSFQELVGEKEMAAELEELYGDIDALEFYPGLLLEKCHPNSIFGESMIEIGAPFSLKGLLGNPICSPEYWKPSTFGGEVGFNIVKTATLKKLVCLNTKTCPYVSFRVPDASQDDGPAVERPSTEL
Method: as §1

[3] = 1 μM, human whole blood, LPS induction
[4] = 10 μM, human whole blood, LPS induction
[5] = 100 μM, human whole blood, A23187 stimulation

| Compound | inhibition at 1 µM [1, 3] [%] | inhibition at 10 µM [1, 4] [%] | inhibition at 100 µM [2, 5] [%] | COX-2 Inhibition (% at 1 μM) [1, 3] [%] | COX-2 Inhibition (% at 10 μM) [1, 4] [%] | COX-1 Inhibition (% at 100 μM) [2, 5] [%] | other results |
| --- | --- | --- | --- | --- | --- | --- | --- |
| COc1ccc(-n2nc(COCCCO[N+](=O)[O-])cc2-c2ccc(S(C)(=O)=O)cc2)cc1[N+](=O)[O-] [Example 10e, 1-(1-(4-Methoxy-3-nitrophenyl)-3-((3-(nitrooxy)propoxy)methyl)pyrazol-5-yl)-4-(methylsulfonyl)benzene] |  |  |  |  |  |  | inhibition at 1 µM [1]: 70%; inhibition at 10 µM [1]: 100%; inhibition at 100 µM [2]: 85% |
| Cc1ccc(-n2nc(COCCCO[N+](=O)[O-])cc2-c2ccc(S(C)(=O)=O)cc2)cc1 [Example 8e, 1-(1-(4-methylphenyl)-3-((3-(nitrooxy)propoxy)methyl)pyrazol-5-yl)-4-(methylsulfonyl)benzene] | 50 | 95 | 90 |  |  |  |  |
| CS(=O)(=O)c1ccc(-c2cc(/C=C\CCO)nn2C2CCCCC2)cc1 [Example 4e, 1-(3-((1Z)-4-(Hydroxy)but-1-enyl)-1-cyclohexylpyrazol-5-yl-4-methylsulfonyl)benzene] |  |  |  | 30 | 70 | 45 |  |
| CS(=O)(=O)c1ccc(-c2cc(/C=C\CCO[N+](=O)[O-])nn2-c2ccccc2)cc1 [Example 11e, 1-(3-((1Z)-4-(Nitrooxy)but-1-enyl)-1-phenylpyrazol-5-yl)-4-(methylsulfonyl)benzene] | 95 | 100 | 90 |  |  |  |  |
| CS(=O)(=O)c1ccc(-c2cc(/C=C/CCO)nn2C2CCCCC2)cc1 [Example 21b] |  |  |  | 10 | 25 | 10 |  |
| CS(=O)(=O)c1ccc(-c2cc(COCCCO[N+](=O)[O-])nn2C2CCCCC2)cc1 [Example 16c, 1-(1-Cyclohexyl-3-((3-(nitrooxy)propoxy)methyl)pyrazol-5-yl)-4-(methylsulfonyl)benzene] | 45 | 85 | 10 |  |  |  |  |
| NS(=O)(=O)c1ccc(-c2c(-c3ccccc3)noc2COCCO)cc1 [Example 27a] |  |  |  | 40 | 90 | 45 |  |
| CS(=O)(=O)c1ccc(-c2cc(COCCCO)nn2-c2ccccc2)cc1 [Example 5d, 4-(3-((3-Hydroxypropoxy)methyl)-1-phenylpyrazol-5-yl)-1-(methylsulfonyl)benzene] | 20 | 80 | 25 |  |  |  |  |
| Cc1ccc(-n2nc(COCCCO)cc2-c2ccc(S(C)(=O)=O)cc2)cc1 [Example 8d, 1-(3-((3-Hydroxypropoxy)methyl)-1-(4-methylphenyl)pyrazol-5-yl)-4-(methylsulfonyl)benzene] | 20 | 90 | 70 |  |  |  |  |
| CS(=O)(=O)c1ccc(-c2cc(C(F)(F)OCCCO[N+](=O)[O-])nn2-c2ccccc2)cc1 [Example 6f, 1-(3-(Difluoro(3-(nitrooxy)propoxy)methyl)-1-phenylpyrazol-5-yl)-4-(methylsulfonyl)benzene] | 50 | 95 | 80 |  |  |  |  |
| CS(=O)(=O)c1ccc(-c2cc(C(=O)CCCO)nn2-c2ccc(Cl)cc2)cc1 [Example 44d, 1-(1-(4-Chlorophenyl)-5-(4-(methylsulfonyl)phenyl)pyrazol-3-yl)-4-hydroxybutan-1-one] | 30 | 60 | 10 |  |  |  |  |
| CS(=O)(=O)c1ccc(-c2cc(COCCO)nn2C2CCCCC2)cc1 [Example 15d, 1-(1-Cyclohexyl-3-((2-hydroxyethoxy)methyl)pyrazol-5-yl)-4-(methylsulfonyl)benzene] | 0 | 40 | 10 |  |  |  |  |
| CS(=O)(=O)c1ccc(-c2cc(C(=O)CCCO)nn2-c2ccc(C(F)(F)F)cc2)cc1 [Example 23d, 4-Hydroxy-1-(5-(4-(methylsulfonyl)phenyl)-1-(4-(trifluoromethyl)-phenyl)pyrazol-3-yl)butan-1-one] | 0 | 10 | -20 |  |  |  |  |
| NS(=O)(=O)c1ccc(-c2c(-c3ccccc3)noc2COCCCO)cc1 [Example 26a] |  |  |  | 50 | 85 | 25 |  |
| NS(=O)(=O)c1ccc(-c2cc(C(=O)CCCO)nn2C2CCCCC2)cc1 [Example 43g, 4-(1-Cyclohexyl-3-(4-hydroxybutanoyl)pyrazol-5-yl)benzenesulfonamide] | 0 | 10 | 30 |  |  |  |  |
| CS(=O)(=O)c1ccc(-c2cc(CO)nn2C2CCCCCCC2)cc1 [Example 1g] |  |  |  | 35 | 75 | 35 |  |
| CS(=O)(=O)c1ccc(-c2cc(C(=O)CCCCCO[N+](=O)[O-])nn2C2CCCCC2)cc1 [Example 22d] |  |  |  | 30 | 30 | 75 |  |
| NS(=O)(=O)c1ccc(-c2c(-c3ccccc3)noc2COCC(F)(F)CO[N+](=O)[O-])cc1 [Example 32d, 4-(5-((2,2-Difuoro-3-(nitrooxy)propoxy)methyl)-3-phenylisoxazol-4-yl)benzenesulfoamide] |  |  |  | 20 | 85 | 0 |  |
| CS(=O)(=O)c1ccc(-c2cc(C(F)(F)OCCCO)nn2-c2ccccc2)cc1 [Example 6e, 1-(3-(Difluoro(3-hydroxypropoxy)methyl)-1-phenylpyrazol-5-yl)-4-(methylsulfonyl)benzene] | 50 | 85 | 40 |  |  |  |  |
| NS(=O)(=O)c1ccc(-c2c(-c3ccccc3)noc2COCCS(=O)(=O)CCO)cc1 [Example 37b, 4-(5-((2-((2-Hydroxyethyl)sulfonyl)ethoxy)methyl)-3-phenylisoxazol-4-yl)benzenesulfonamide] | 35 | 90 | 50 |  |  |  |  |
| CS(=O)(=O)c1ccc(-c2cc(C(=O)CCCO)nn2-c2ccc(F)cc2)cc1 [Example 13d, 1-(1-(4-Fluorophenyl)-5-(4-(methylsulfonyl)phenyl)pyrazol-3-yl)-4-hydroxybutan-1-one] | 25 | 25 | 0 |  |  |  |  |
| CS(=O)(=O)c1ccc(-c2cc(COc3cccc(CO)c3)nn2C2CCCCC2)cc1 [Example 17b, 1-(1-Cyclohexyl-3-((3-(hydroxymethyl)phenoxy)methyl)pyrazol-5-yl)-4-(methylsulfonyl)benzene] | 135 | 100 | 80 |  |  |  |  |
| NS(=O)(=O)c1ccc(-c2c(-c3ccccc3)noc2COCCO[N+](=O)[O-])cc1 [Example 27b] |  |  |  | 50 | 100 | 65 |  |
| CS(=O)(=O)c1ccc(-c2cc(COc3cccc(CO[N+](=O)[O-])c3)nn2C2CCCCC2)cc1 [Example 17d, 1-(1-Cyclohexyl-3-((3-((nitrooxy)methyl)phenoxy)methyl)pyrazol-5-yl)-4-(methylsulfonyl)benzene] | 0 | 25 | 25 |  |  |  |  |
| 4-(5-(4-Chlorophenyl)-3-((3-hydroxypropoxy)methyl)pyrazolyl)-benzenesulfonamide [Example 36b] |  |  |  | 30 | 55 | 30 |  |

Source: patent publication US7442802B2, “Cyclooxygenase-2 selective inhibitors, compositions and methods of use” (NitroMed, Inc., priority 2002, dated 2008)
